Measurements as given in patent publication US7888329B2, “Substituted aryl piperidinylalkynyladenosines as A2AR agonists” (PGxHealth, LLC, priority 2006, dated 2011).
Like-named read-outs stand apart in the source and are kept apart here.

Experiments:
human A1 AR = biological target: T1, human A1 AR (Homo sapiens, UniProt P30542); test: Radioligand competition binding with 125I-ABA, membranes of CHO K1 cells stably expressing the receptor; conditions: Ki derived from IC50, class symbols
T1 construct: expressed in transfected cells; membranes
T1 sequence (P30542 1-326): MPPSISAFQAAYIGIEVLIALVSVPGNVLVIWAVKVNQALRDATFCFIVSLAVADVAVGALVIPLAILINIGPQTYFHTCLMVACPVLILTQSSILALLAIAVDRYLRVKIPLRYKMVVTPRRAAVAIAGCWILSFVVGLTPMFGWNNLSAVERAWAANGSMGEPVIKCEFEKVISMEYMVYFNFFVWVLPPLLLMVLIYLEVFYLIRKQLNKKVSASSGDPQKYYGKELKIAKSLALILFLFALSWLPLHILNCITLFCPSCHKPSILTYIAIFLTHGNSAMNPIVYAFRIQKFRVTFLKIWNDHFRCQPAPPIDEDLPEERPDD

[1] = biological target: T2, recombinant human A2A receptors (Homo sapiens, UniProt P29274); test: Radioligand competition binding with 125I-APE or 125I-ZM241385, Sf9 cell membranes; conditions: 125I-APE or 125I-ZM241385, Sf9 membranes; class symbols
T2 construct: expressed in transfected cells; host or cells: Sf9 insect cells infected with virus; membranes
T2 sequence (P29274 whole entry): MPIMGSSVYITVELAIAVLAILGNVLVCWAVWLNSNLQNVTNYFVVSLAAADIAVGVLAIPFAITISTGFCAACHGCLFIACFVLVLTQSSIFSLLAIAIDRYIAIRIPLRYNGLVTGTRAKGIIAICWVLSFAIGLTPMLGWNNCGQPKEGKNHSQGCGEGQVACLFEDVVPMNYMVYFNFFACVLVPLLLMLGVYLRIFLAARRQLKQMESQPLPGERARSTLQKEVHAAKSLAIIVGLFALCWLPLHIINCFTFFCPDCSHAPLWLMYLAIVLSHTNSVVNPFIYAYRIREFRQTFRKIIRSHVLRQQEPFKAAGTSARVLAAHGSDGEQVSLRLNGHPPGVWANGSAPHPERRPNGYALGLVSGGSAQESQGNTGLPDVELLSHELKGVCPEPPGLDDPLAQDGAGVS
Experimental: Cell culture and membrane preparation. Sf9 cells were cultured in Grace's medium supplemented with 10% fetal bovine serum, 2.5 μg/ml amphotericin B and 50 μg/ml gentamycin in an atmosphere of 50% N2/50% O2. Viral infection was performed at a density of 2.5×10^6 cells/mL with a multiplicity of infection of two for each virus used. Infected cells were harvested 3 days post-infection and washed twice in insect PBS (PBS pH 6.3). Cells were then resuspended in lysis buffer (20 mM HEPES pH 7.5, 150 mM NaCl, 3 mM MgCl2, 1 mM α-mercaptoethanol (BME), 5 μg/mL leupeptin, 5 μg/mL pepstatin A, 1 μg/mL aprotinin, and 0.1 mM PMSF) and snap frozen for storage at −80° C. Cells were thawed on ice, brought to 30 mL total volume in lysis buffer, and burst by N2 cavitation (600 psi for 20 minutes). A low-speed centrifugation was performed to remove any unlysed cells (1000×g for 10 minutes), followed by a high-speed centrifugation (17,000×g for 30 minutes). The pellet from the final centrifugation was homogenized in buffer containing 20 mM HEPES pH 8, 1100 mM NaCl, 1% glycerol, 2 μg/mL leupeptin, 2 μg/mL pepstatin A, 2 μg/mL Aprotinin, 0.1 mM PMSF, and 10 μM GDP using a small glass homogenizer followed by passage through a 26 gauge needle. Membranes were aliquoted, snap frozen in liquid N2, and stored at −80° C.
Radioligand Binding Assays. […] Binding experiments were performed in triplicate with 5 μg (A2A) or 25 μg (A1 and A3) membrane protein in a total volume of 00.1 mL HE buffer (20 mM HEPES and 1 mM EDTA) with 1 U/mL adenosine deaminase and 5 mM MgCl2 with or without 50 μM GTPγS. Membranes were incubated with radioligands at room temperature for three hours (for agonists) or two hours (for antagonists) in Millipore Multiscreen® 96-well GF/C filter plates and assays were terminated by rapid filtration on a cell harvester (Brandel, Gaithersburg, Md.) followed by 4×150 μl washes over 30 seconds with ice cold 10 mM Tris-HCl, pH 7.4, 10 mM MgCl2. Nonspecific binding was measured in the presence of 50 μM NECA.

human A3 AR = biological target: T3, human A3 AR (Homo sapiens, UniProt P0DMS8); test: Radioligand competition binding with 125I-ABA, membranes of HEK 293 cells stably expressing the receptor; conditions: Ki derived from IC50, class symbols
T3 construct: expressed in transfected cells; membranes
T3 sequence (P0DMS8 1-318): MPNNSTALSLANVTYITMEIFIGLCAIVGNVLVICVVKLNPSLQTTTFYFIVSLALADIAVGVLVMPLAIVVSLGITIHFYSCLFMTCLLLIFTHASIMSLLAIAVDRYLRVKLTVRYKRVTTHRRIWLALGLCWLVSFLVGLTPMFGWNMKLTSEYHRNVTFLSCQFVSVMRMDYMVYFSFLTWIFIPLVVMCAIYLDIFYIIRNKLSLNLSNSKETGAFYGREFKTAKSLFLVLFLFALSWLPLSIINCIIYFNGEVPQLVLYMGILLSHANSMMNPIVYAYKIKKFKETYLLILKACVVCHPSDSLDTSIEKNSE
Experimental: Cell culture and membrane preparation. Sf9 cells were cultured in Grace's medium supplemented with 10% fetal bovine serum, 2.5 μg/ml amphotericin B and 50 μg/ml gentamycin in an atmosphere of 50% N2/50% O2. Viral infection was performed at a density of 2.5×10^6 cells/mL with a multiplicity of infection of two for each virus used. Infected cells were harvested 3 days post-infection and washed twice in insect PBS (PBS pH 6.3). Cells were then resuspended in lysis buffer (20 mM HEPES pH 7.5, 150 mM NaCl, 3 mM MgCl2, 1 mM α-mercaptoethanol (BME), 5 μg/mL leupeptin, 5 μg/mL pepstatin A, 1 μg/mL aprotinin, and 0.1 mM PMSF) and snap frozen for storage at −80° C. Cells were thawed on ice, brought to 30 mL total volume in lysis buffer, and burst by N2 cavitation (600 psi for 20 minutes). A low-speed centrifugation was performed to remove any unlysed cells (1000×g for 10 minutes), followed by a high-speed centrifugation (17,000×g for 30 minutes). The pellet from the final centrifugation was homogenized in buffer containing 20 mM HEPES pH 8, 1100 mM NaCl, 1% glycerol, 2 μg/mL leupeptin, 2 μg/mL pepstatin A, 2 μg/mL Aprotinin, 0.1 mM PMSF, and 10 μM GDP using a small glass homogenizer followed by passage through a 26 gauge needle. Membranes were aliquoted, snap frozen in liquid N2, and stored at −80° C. Membranes from cells stably expressing the human A1 AR (CHO K1 cells) or A3 AR (HEK 293 cells) were prepared as described (Robeva et al., 1996).
Radioligand Binding Assays. Radioligand binding to recombinant human A2A receptors in Sf9 cell membranes was performed using either the radiolabeled agonist, ^125I-APE (Luthin et al., 1995) or the radiolabeled antagonist, ^125I-ZM241385 (^125I-ZM). To detect the high affinity, GTPγS-sensitive state of A1 and A3 AR, we used the agonist, ^125I-ABA (Linden et al., 1985; Linden et al., 1993). Binding experiments were performed in triplicate with 5 μg (A2A) or 25 μg (A1 and A3) membrane protein in a total volume of 00.1 mL HE buffer (20 mM HEPES and 1 mM EDTA) with 1 U/mL adenosine deaminase and 5 mM MgCl2 with or without 50 μM GTPγS. Membranes were incubated with radioligands at room temperature for three hours (for agonists) or two hours (for antagonists) in Millipore Multiscreen® 96-well GF/C filter plates and assays were terminated by rapid filtration on a cell harvester (Brandel, Gaithersburg, Md.) followed by 4×150 μl washes over 30 seconds with ice cold 10 mM Tris-HCl, pH 7.4, 10 mM MgCl2. Nonspecific binding was measured in the presence of 50 μM NECA. Competition binding assays were performed as described (Robeva et al., 1996) using 0.5-1 nM ^125I-APE, ^125I-ZM241385, or ^125I-ABA. […] The Ki values for competing compound binding to a single site were derived from IC50 values with correction for radioligand and competing compound depletion as described previously (Linden, 1982).

[2] = test system: Purified human neutrophils; test: Luminol enhanced chemiluminescence (neutrophil oxidative activity), fMLP stimulated; assay type: cell-based; conditions: read-out: Functional
From the text: Chemiluminescence Methods: Luminol enhanced chemiluminescence, a measure of neutrophil oxidative activity, is dependent upon both superoxide production and mobilization of the granule enzyme myeloperoxidase. The light is emitted from unstable high-energy oxygen species such as hypochlorous acid and singlet oxygen generated by activated neutrophils.
Purified human neutrophils (2×10^6/ml) suspended in Hanks balanced salt solution containing 0.1% human serum albumin (HA), adenosine deaminase (1 U/mL) and rolipram (100 nM) were incubated (37 C) in a water bath for 15 min with or without rhTNF (10 U/ml). Following incubation 100 µL aliquots of the PMN were transferred to wells (White walled clear bottom 96 well tissue culture plates Costar #3670; 2 wells/condition) containing […] and luminol (final concentration 100M) with or without adenosine agonist (final agonist concentrations 0.01-1000 nM). The plate was incubated 5 min (37 C) and then fMLP (50 l in HA; final concentration […]) was added to all wells.
Peak chemiluminescence was determined with a Victor 1420 Multilabel Counter in the chemiluminescence mode using the Wallac Workstation software. Data are presented as peak chemiluminescence as percent of activity in the absence of an adenosine agonist. The EC50 was determined using PRISM software. All compounds were tested with PMNs from three separate donors.

Nc1nc(C#CCC2CCN(C(=O)Oc3ccc(Cl)cc3)CC2)nc2c1ncn2[C@@H]1O[C@H](C(=O)NC2CC2)C(O)[C@@H]1O (some centres unmarked) [Compound 17, N-Cyclopropyl 2-{3-[1-(4-chlorophenoxycarbonyl)-4-piperidinyl]-1-propyn-1-yl}adenosine-5′-uronamide]
Ki (human A1 AR): < 100 nM
Ki [1]: < 1 nM
Ki (human A3 AR): < 100 nM
EC50 ([2]; Homo sapiens, Neutrophil): < 1 nM

CCNC(=O)[C@H]1O[C@@H](n2cnc3c(N)nc(C#CCC4CCN(C(=O)Oc5ccc(C)cc5)CC4)nc32)[C@@H](O)C1O (some centres unmarked) [Compound 16, N-Ethyl 2-{3-[1-(4-methylphenoxycarbonyl)-4-piperidinyl]-1-propyn-1-yl}adenosine-5′-uronamide]
Ki (human A1 AR): < 100 nM
Ki [1]: < 1 nM
Ki (human A3 AR): < 10 nM
EC50 ([2]; Homo sapiens, Neutrophil): < 1 nM

Nc1nc(C#CCC2CCN(C(=O)Oc3ccc(F)c(F)c3)CC2)nc2c1ncn2[C@@H]1O[C@H](CO)[C@@H](O)[C@H]1O [Compound 54, 2-{3-[1-((3,4-Difluoro)phenoxycarbanoyl)piperidin-4-yl]propyn-1-yl}adenosine]
Ki (human A1 AR): < 100 nM
Ki [1]: < 1 nM
Ki (human A3 AR): < 100 nM
EC50 ([2]; Homo sapiens, Neutrophil): < 10 nM

Cc1ccc(OC(=O)N2CCC(CC#Cc3nc(N)c4ncn([C@@H]5O[C@H](C(=O)NC6CC6)[C@@H](O)[C@H]5O)c4n3)CC2)cc1C [Compound 47, N-Cyclopropyl 2-{3-[1-(3,4-dimethylphenoxycarbonyl)-4-piperidinyl]-1-propyn-1-yl}adenosine-5′-uronamide]
Ki (human A1 AR): < 100 nM
Ki [1]: < 1 nM
Ki (human A3 AR): < 100 nM
EC50 ([2]; EC50 of peak chemiluminescence, human PMN, rolipram 100 nM, fMLP, three donors, class symbols): < 1 nM

CCNC(=O)[C@H]1O[C@@H](n2cnc3c(N)nc(C#CCC4CCN(C(=O)Oc5ccc([N+](=O)[O-])cc5)CC4)nc32)[C@@H](O)C1O (some centres unmarked) [Compound 19, N-Ethyl 2-{3-[1-(4-nitrophenyloxycarbonyl)-4-piperidinyl]-1-propyn-1-yl}adenosine-5′-uronamide]
Ki (human A1 AR): < 100 nM
Ki [1]: < 1 nM
Ki (human A3 AR): < 10 nM
EC50 ([2]; Homo sapiens, Neutrophil): < 1 nM

Nc1nc(C#CCC2CCN(C(=O)OCc3ccccc3)CC2)nc2c1ncn2[C@@H]1O[C@H](C(=O)NC2CC2)C(O)[C@@H]1O (some centres unmarked) [Compound 2, N-Cyclopropyl 2-{3-[1-(benzyloxycarbonyl)-4-piperidinyl]-1-propyn-1-yl}adenosine-5′-uronamide, reference compound]
Ki (human A1 AR): < 100 nM
Ki [1]: < 1 nM
Ki (human A3 AR): < 100 nM
EC50 ([2]; Homo sapiens, Neutrophil): < 1 nM

Nc1nc(C#CCC2CCN(C(=O)OCCOCc3ccccc3)CC2)nc2c1ncn2[C@@H]1O[C@H](CO)C(O)[C@@H]1O (some centres unmarked) [Compound 7, 2-{3-[1-((2-Benzyloxy)ethoxycarbonyl)piperidin-4-yl]propyn-1-yl}adenosine]
Ki (human A1 AR): < 100 nM
Ki [1]: < 1 nM
Ki (human A3 AR): < 100 nM
EC50 ([2]; Homo sapiens, Neutrophil): < 10 nM

Nc1nc(C#CCC2CCN(C(=O)Nc3ccc(F)cc3)CC2)nc2c1ncn2[C@@H]1O[C@H](CO)C(O)[C@@H]1O (some centres unmarked) [Compound 44]
Ki (human A1 AR): < 100 nM
Ki [1]: < 10 nM
Ki (human A3 AR): < 100 nM
EC50 ([2]; Homo sapiens, Neutrophil): > 100 nM

Nc1nc(C#CCC2CCN(C(=O)Oc3ccc(Cl)cc3)CC2)nc2c1ncn2[C@@H]1O[C@H](CO)[C@@H](O)[C@H]1O [Compound 27, 2-{3-[1-((4-Chloro)phenoxycarbanoyl)piperidin-4-yl]propyn-1-yl}adenosine]
Ki (human A1 AR): < 100 nM
Ki [1]: < 1 nM
Ki (human A3 AR): < 100 nM
EC50 ([2]; Homo sapiens, Neutrophil): < 10 nM

Nc1nc(C#CCC2CCN(C(=O)Oc3ccccc3Cl)CC2)nc2c1ncn2[C@@H]1O[C@H](CO)[C@@H](O)[C@H]1O [Compound 35, 2-{3-[1-((2-Chloro)phenoxycarbanoyl)piperidin-4-yl]propyn-1-yl}adenosine]
Ki (human A1 AR): < 100 nM
Ki [1]: < 1 nM
Ki (human A3 AR): < 100 nM
EC50 ([2]; Homo sapiens, Neutrophil): < 10 nM

CCNC(=O)[C@H]1O[C@@H](n2cnc3c(N)nc(C#CCC4CCN(C(=O)Oc5ccc(C(=O)OC)cc5)CC4)nc32)[C@@H](O)C1O (some centres unmarked) [Compound 25, N-Ethyl 2-{3-[1-(4-methoxycarboxyphenyloxycarbonyl)-4-piperidinyl]-1-propyn-1-yl}adenosine-5′-uronamide]
Ki (human A1 AR): > 100 nM
Ki [1]: < 10 nM
Ki (human A3 AR): < 100 nM
EC50 ([2]; Homo sapiens, Neutrophil): < 10 nM
